Data taken from PMC10025480 (Frontiers in Pharmacology, 2023).

Legend:
CF-HBE cells = experiment: Intracellular Ca2+ measurement (Calcium6), IL-13 pre-treated CF-HBE at ALI; format: cell-based, human; conditions: for direct effect on baseline [Ca2+]i: apical addition; for UTP-stimulated elevation of [Ca2+]i: pre-treatment
Procedure: CF-HBE cultured at air-liquid interface for 14–21 days were pre-treated with IL-13 (10 ng/mL; 48 h). CF-HBE were then loaded with the Ca^2+-sensitive fluorescent reporter dye, Calcium6 for 120 min at 37°C in Hanks balanced salt solution (HBSS) buffered with 20 mM HEPES (pH 7.4). […] The direct effects of apically administered TMEM16A blockers on [Ca^2+]i as well as effects on the subsequent responses to UTP were measured using a PHERAstar plate reader (BMG Lab Tech, United Kingdom). Equivalent measurements were performed in FRT-TMEM16Aabc cells that had been cultured in 96 well, clear bottom plastic plates and loaded with Calcium6 using the same protocol.

[1] = system: panel of 22 functional GPCR assays; experiment: SelectScreen cell-based GPCR assay panel; conditions: 10 µM
Description: Profiling of compound activity versus a select panel of diverse GPCRs was undertaken by ThermoFisher Scientific (United Kingdom) via their SelectScreen cell-based GPCR assay panel. Detailed experimental protocols on this assay platform can be found at (https://www.thermofisher.com/content/dam/LifeTech/migration/en/filelibrary/services/discovery-research/pdfs.par.36410.file.dat/sscg-brochure.pdf). Briefly these assays detect agonist or antagonist activity using cell lines with the GPCR of interest over-expressed, driving the expression of a reporter gene encompassing a mammalian-optimized Beta-lactamase. Test compounds are incubated with the specific cell lines at the defined final concentration for 5 or 16 h (depending on the cell line specifics) before quantification of effect.

HBE cells (non-CF) = experiment: Short-circuit current (ISC) and transepithelial resistance, non-CF HBE; format: cell-based, human; conditions: for Inh172-sensitive ISC / amiloride-sensitive current / magnitude of response to amiloride / forskolin-stimulated current: after compound treatment; for change in transepithelial resistance: vehicle +108 ± 14
Procedure: HBE cultured at air-liquid interface (ALI) for 14–21 days were mounted in Ussing chambers in symmetrical Ringers solution containing (in mM): 120 NaCl, 25 NaHCO3, 3.3 KH2PO4, 0.8 K2HPO4, 1.2 CaCl2, 1.2 MgCl2, and 10 glucose, and voltage clamped as described above. In some studies, HBE were pre-treated with IL-13 (10 ng/mL; Peprotech, United Kingdom) for 48 h to increase TMEM16A expression levels ([Caputo et al., 2008]). Amiloride (10 μM; apical) was used to block the spontaneous, ENaC-mediated current, whilst UTP (10 μM; apical) and forskolin (10 μM; apical and basolateral) were added to the bath solutions to activate Ca^2+ and cAMP-dependent anion secretory responses, respectively. Inh172 (30 μM; apical and basolateral) was also used to inhibit CFTR function. The TMEM16A blockers were added to the apical side of the Ussing chambers to evaluate effects on each of these currents.

[2] = system: human vascular smooth muscle preparations; conditions: ref Papp et al., 2019; cited from earlier work
[3] = parameters: method as in Papp et al., 2019; conditions: PAH patients; ref Papp et al., 2019; cited from earlier work
hTMEM16Aacd = biological target: T1, hTMEM16Aacd (Homo sapiens, UniProt Q5XXA6); experiment: Whole-cell patch clamp (QPatch), HEK-hTMEM16Aacd cells; format: cell-based
T1 construct: expressed in transfected cells; host or cells: HEK cells
T1 sequence (Q5XXA6 1-986): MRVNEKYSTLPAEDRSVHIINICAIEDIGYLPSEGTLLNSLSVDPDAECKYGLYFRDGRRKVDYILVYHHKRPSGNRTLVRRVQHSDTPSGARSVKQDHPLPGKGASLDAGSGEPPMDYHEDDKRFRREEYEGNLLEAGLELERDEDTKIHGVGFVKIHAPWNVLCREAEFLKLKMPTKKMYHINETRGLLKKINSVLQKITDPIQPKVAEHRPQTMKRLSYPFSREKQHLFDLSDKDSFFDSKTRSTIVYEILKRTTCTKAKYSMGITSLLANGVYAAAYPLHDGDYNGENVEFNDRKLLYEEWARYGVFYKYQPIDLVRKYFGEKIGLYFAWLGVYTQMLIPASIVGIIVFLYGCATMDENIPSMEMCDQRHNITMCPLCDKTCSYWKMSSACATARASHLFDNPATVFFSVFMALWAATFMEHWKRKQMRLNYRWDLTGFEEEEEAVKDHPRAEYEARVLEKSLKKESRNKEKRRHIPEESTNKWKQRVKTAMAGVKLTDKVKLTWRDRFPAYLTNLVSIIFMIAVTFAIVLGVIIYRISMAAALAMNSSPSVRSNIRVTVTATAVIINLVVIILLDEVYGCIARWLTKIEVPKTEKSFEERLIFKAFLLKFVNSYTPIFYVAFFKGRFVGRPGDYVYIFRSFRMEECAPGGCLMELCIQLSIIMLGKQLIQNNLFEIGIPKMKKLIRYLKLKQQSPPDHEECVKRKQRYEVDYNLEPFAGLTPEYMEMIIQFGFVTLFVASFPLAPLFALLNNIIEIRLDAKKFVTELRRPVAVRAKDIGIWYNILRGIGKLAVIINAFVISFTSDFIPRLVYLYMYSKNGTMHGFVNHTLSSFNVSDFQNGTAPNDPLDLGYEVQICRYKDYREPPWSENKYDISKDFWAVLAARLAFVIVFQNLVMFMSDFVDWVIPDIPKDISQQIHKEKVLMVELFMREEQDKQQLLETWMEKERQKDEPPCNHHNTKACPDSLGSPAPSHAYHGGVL
Procedure: Whole-cell voltage-clamp recordings from FRT-hTMEM16Aabc, HEK-hTMEM16Aacd, and HEK293 cells were made using the QPatch planar patch clamp system as described previously ([Bill et al., 2015]; [Danahay et al, 2020a]). TMEM16A currents were assessed using chloride selective solutions with calculated free [Ca^2+]i tightly buffered at either 415 or 0 nM. Current rectification ratios were calculated by dividing the magnitude of the outward current at +90 mV by the magnitude of the inward current at −90 mV.

HEK293 cells = experiment: Whole-cell patch clamp (QPatch), parental HEK cells lacking TMEM16A; format: cell-based; conditions: compared with HEK-TMEM16Aacd cells at 0 nM [Ca2+]i
Procedure: Current rectification ratios were calculated by dividing the magnitude of the outward current at +90 mV by the magnitude of the inward current at −90 mV.

[4] = system: human bronchial smooth muscle; conditions: cited from earlier work

Row | change in transepithelial resistance (HBE cells (non-CF)) | effect on TMEM16Aacd currents (hTMEM16Aacd; HEK cells, [Ca2+]i clamped at 415 nM, bell shaped concentration response) | EC50 (hTMEM16Aacd; HEK-TMEM16Aacd cells, [Ca2+]i clamped to 0 nM (TMEM16A not activated), read-out: EC50, concentration-dependent increase in current) [nM] | reversal potential of induced current (hTMEM16Aacd; [Ca2+]i clamped to 0 nM) | SMILES | direct effect on baseline [Ca2+]i (CF-HBE cells) | UTP-stimulated elevation of [Ca2+]i (CF-HBE cells) | number of GPCRs inhibited by ≥ 50% [1] | Inh172-sensitive ISC (HBE cells (non-CF)) | amiloride-sensitive current / magnitude of response to amiloride (HBE cells (non-CF)) | forskolin-stimulated current (HBE cells (non-CF)) | decline in the baseline ISC (HBE cells (non-CF); apical) [%] | effect on vascular smooth muscle in vitro [2] | pulmonary artery pressure [3] | effect on currents in parental HEK cell line (HEK293 cells) | reduction in the baseline ISC (HBE cells (non-CF); 10 µM, within 30 min of addition) [%] | relaxation of human bronchial smooth muscle ([4]; ref Danahay et al., 2020b) | effect on freshly isolated human bronchial smooth muscle ([4]; ref Miner et al., 2019)
1 | +170 ± 25 Ω cm^2 |  |  |  | CCc1oc2ccccc2c1C(=O)c1cc(Br)c(O)c(Br)c1 [benzbromarone] | immediate and transient increase | attenuated | 6 | attenuated | attenuated | attenuated | 50 | relax | paradoxical increase |  |  |  | 
2 | −174 ± 19 Ω cm^2 | enhancement of currents at low µM | 2700 ± 300 | approximately −50 mV | O=C(Nc1ccc([N+](=O)[O-])cc1Cl)c1cc(Cl)ccc1O [niclosamide] | immediate and transient increase | attenuated | 11 | attenuated | attenuated | attenuated |  |  |  | Quantitatively similar effects | ~90 | confirmed | relax
